{
  "source": "patent US20200157048A1",
  "about": "“(2E,4E)-5-PHENYL-PENTA-2,4-DIEN-1-ONE DERIVATIVE” (BIOWAY., INC, priority 2018, published 2020)",
  "key": {"Huh-7 cells": {"test_system": "Huh-7 cells", "assay": "Oil-Red O staining and lipid accumulation in steatosis-induced Huh-7 cells", "format": "cell-based", "conditions": "Huh-7 cells pretreated with OA/PA (R-28: OA); 10, 20 or 40 μM (R-28: 2, 10, 50 μM); 24 hours", "protocol": "Huh-7 cells were maintained in a RPMI1640 medium containing 10% FBS, 100 U/mL of penicillin, and 100 μg/mL of streptomycin. All reagents were purchased from Life Technologies Corporation (Grand Island, N.Y., USA).\nThe Huh-7 cells were incubated under an atmosphere containing 5% CO2 at 37° C.\nIn Experimental Example 4, the Huh-7 cells were plated in 24 wells at 3×10^5 cells/mL and incubated under an atmosphere containing 5% CO2 at 37° C.\n(§1) One day later, the cell density approached about 80 to 90%. The medium was changed to an FBS-free RPMI1640 medium, and incubated under an atmosphere containing 5% CO2 at 37° C. for 24 hours.\nHuh-7 cells of each well, excluding control cells, were pretreated with an OA/PA mixture (however, R-28 is OA) for 1 hour to induce steatosis. Control cells were pretreated with 1% FA-free BSA.\nEach well was treated with 10 μM, 20 μM, or 40 μM of a test compound (however, for R-28, 2 μM, 10 μM and 50 μM), and cultured for 24 hours. The control cells and the OA/PA-treated cells were treated with DMSO. […]\nImages were obtained from a Cytation 5 Cell Imaging Multi-Mode Reader (BioTek, Winooski, Vt., USA). […]\n200 μL of isopropyl alcohol was added to each well, and the cells were collected in a 96-well plate. Absorbance was measured at 540 nm, and data was analyzed."}, "Fgf21 mRNA": {"test_system": "Fgf21 mRNA", "assay": "qRT-PCR Fgf21 mRNA level in steatosis-induced Huh-7 cells", "format": "cell-based, Human", "conditions": "steatosis-induced (OA/PA) Huh-7 cells; 10 μM; 24 hours", "protocol": "In Experimental Example 5, the Huh-7 cells were plated in 6 wells at 4×10^5 cells/mL and incubated under an atmosphere containing 5% CO2 at 37° C.\nas §1\nHuh-7 cells of each well, excluding control cells, were pretreated with an OA/PA mixture for one hour to induce steatosis. The control cells were pretreated with 1% FA-free BSA.\nEach well was treated with 10 μM of a test compound, and then the cells were incubated for 24 hours. The control cells and OA/PA-treated cells were treated with DMSO. Cells of a positive control were treated with 10 μM of resveratrol, 10 μM of piperine, and 10 μM of YU2014. The medium was entirely aspirated, and the cells were washed with PBS (phosphate buffered saline, Corning, Manassas, Va., USA) two times.\nTotal RNA was extracted using a RNeasy RNA isolation kit (Qiagen, Hilden, Germany).\n10 μL of β-mercaptoethanol (Sigma-Aldrich) per 1 mL of lysis buffer was added, thereby preparing an RNA lysis buffer. […]\nAn RNA concentration was measured at O.D. 260 nm using a nanophotometer N60 (Implen, Munich, Germany). The concentration and purity of RNA were measured at O.D. 260/280 nm and calculated as a ratio. […]\nQuantitative analyses for the genes in Table 3 were performed."}},
  "note": "Entries after “also recorded” stand apart in the source; their conditions may differ.",
  "data": [
    {"molecule": "CSc1ccc(/C=C/C=C/C(=O)N2CCCCC2)cc1", "note": "[YU2014, (2E,4E)-5-(4-(methylthio)phenyl)-1-(piperidine-1-yl)penta-2,4-dien-1-one]", "values": [
      {"measurement": "degree of lipid staining (ORO, absorbance at 540 nm, FIGS. 5-8)", "setting": "Huh-7 cells", "result": "not greatly changed"},
      {"measurement": "Fgf21 mRNA level (FIG. 12)", "setting": "Fgf21 mRNA", "result": "almost no increase; also recorded: no effect"}
    ]}
  ]
}
